Test results reported in patent US8207176B2 (Glaxo Group Limited, priority 2005, dated 2012).

How the values were obtained:
[1] = tested on: influx of neutrophils to the lung in LPS-challenged rats; test: Rat LPS neutrophilia model; format: in vivo; conditions: intratracheal, LPS aerosol 100 ug/ml 15 min, lavage 4 hours later, in at least one of the range of conditions tested, significant p<0.05, nonsignificant p>0.05
Method in brief: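 Compound was given intratracheally (200 ul, suspension or dry powder) 15 min–24 hours before a 15 min aerosol of LPS (100 ug/ml). Bronchoalveolar lavage was taken 4 hours after challenge for differential cell counts. Values are % inhibition of neutrophils versus no-compound controls at a given concentration and pretreat time.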

[2] = molecular target: T1, Recombinant human p38α (MKK6-activated) (Homo sapiens, UniProt Q16539); test: Time-resolved fluorescence resonance energy transfer (TR-FRET) kinase assay (standard or low volume); format: biochemical; set-up: key: Compounds are considered active in this assay if they demonstrate a pIC50 of greater than 4.6 up to about a pIC50 of greater than 10.0; conditions: MKK6-activated p38α 100 pM, GST-ATF2 400 nM, 120 minutes at room temperature; either assay format
T1 construct: His; made in house
Procedure: It is noted that there are two assay formats shown above for the Fluorescence anisotropy kinase binding assay. The only difference between these two assays is the volume used and the plate type. […] The results described herein may have been performed in either assay format and are not differentiated as to which. […] TR-FRET Assay Time-Resolved Fluorescence Resonance Energy Transfer Kinase Standard Assay Recombinant human p38α was expressed as a His-tagged protein. To activate this protein, 3 μM unactivated p38α was incubated in 200 mM Hepes pH 7.4, 625 mM NaCl, 1 mM DTT with 27 nM active MKK6 (Upstate), 1 mM ATP and 10 mM MgCl2 The activity of the MKK6-activated p38α was assessed using a time-resolved fluorescence resonance energy transfer (TR-FRET) assay. Biotinylated-GST-ATF2 (residues 19-96, 400 nM final), ATP ([…]) and MgCl2 (5 mM final) in assay buffer (40 mM HEPES pH 7.4, 1 mM DTT) were added to wells containing 1 ul of various concentrations of compound or DMSO vehicle (3% final) in NUNC 384 well black plate. The reaction was initiated by the addition of MKK6-activated p38 (100 pM final) to give a total volume of 30 ul. The reaction was incubated for 120 minutes at room temperature, then terminated by the addition of 15 μl of 100 mM EDTA pH 7.4. Detection reagent (15 μl) in buffer (100 mM HEPES pH 7.4, 150 mM NaCl, 0.1% w/v BSA, 1 mM DTT) containing antiphosphothreonine-ATF2-71 polyclonal antibody (Cell Signalling Technology, Beverly Mass., USA) labelled with W-1024 europium chelate (Wallac OY, Turku, Finland), and APC-labelled streptavidin (Prozyme, San Leandro, Calif., USA) was added and the reaction was further incubated for 60 minutes at room temperature. The degree of phosphorylation of GST-ATF2 was measured using a Packard Discovery plate reader (Perkin-Elmer Life Sciences, Pangbourne, UK) as a ratio of specific 665 nm energy transfer signal to reference europium 620 nm signal. Time-Resolved Fluorescence Resonance Energy Transfer Kinase Low Volume Assay Recombinant human p38α was expressed as a His-tagged protein. To activate this protein, 3 μM unactivated p38α was incubated in 200 mM Hepes pH7.4, 625 mM NaCl, 1 mM DTT with 27 nM active MKK6 (Upstate), 1 mM ATP and 10 mM MgCl2 The activity of the MKK6-activated p38α was assessed using a time-resolved fluorescence resonance energy transfer (TR-FRET) assay. Biotinylated-GST-ATF2 (residues 19-96, 400 nM final), ATP (125 μM final) and MgCl2 ([…]) in assay buffer (40 mM HEPES pH 7.4, 1 mM DTT) were added to wells containing 0.1 μl of various concentrations of compound or DMSO vehicle (1.7% final) in Greiner low volume 384 well black plate. The reaction was initiated by the addition of MKK6-activated p38α (100 pM final) to give a total volume of 6 μl. The reaction was incubated for 120 minutes at room temperature, then terminated by the addition of 3 μl of detection reagent in buffer (100 mM HEPES pH 7.4, 150 mM NaCl, 0.1% w/v BSA, 1 mM DTT, 100 mM EDTA) containing antiphosphothreonine-ATF2-71 polyclonal antibody (Cell Signalling Technology, Beverly Mass., USA) labelled with W-1024 europium chelate (Wallac OY, Turku, Finland), and APC-labelled streptavidin (Prozyme, San Leandro, Calif., USA). The reaction was further incubated for 60 minutes at room temperature. The degree of phosphorylation of GST-ATF2 was measured using a BMG Rubystar plate reader (BMG, UK) as a ratio of specific 665 nm energy transfer signal to reference europium 620 nm signal. It is noted that there are two assay formats shown above for the Time-resolved fluorescence resonance energy transfer kinase assay. The only difference between these two assays is the volume used and the plate type. […] The results described herein may have been performed in either assay format and are not differentiated as to which. […] For purposes herein the HTRF assay and the Fluorescence anisotropy kinase binding assay: […]

T1 sequence (Q16539 whole entry): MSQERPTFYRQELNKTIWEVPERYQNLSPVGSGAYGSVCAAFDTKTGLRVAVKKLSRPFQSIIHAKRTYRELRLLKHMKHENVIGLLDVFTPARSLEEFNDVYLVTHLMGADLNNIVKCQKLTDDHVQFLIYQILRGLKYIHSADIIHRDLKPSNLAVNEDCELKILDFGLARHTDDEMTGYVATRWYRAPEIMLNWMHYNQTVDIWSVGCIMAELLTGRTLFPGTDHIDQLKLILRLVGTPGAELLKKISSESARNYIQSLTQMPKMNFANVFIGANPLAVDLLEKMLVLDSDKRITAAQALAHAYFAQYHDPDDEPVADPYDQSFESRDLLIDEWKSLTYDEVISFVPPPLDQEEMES

| Compound | melting point | inhibition of neutrophilia (neutrophil levels in lung lavage relative to no compound controls) [1] | pIC50, reported as active [2] |
| --- | --- | --- | --- |
| Cc1ccc(C(=O)NCc2ccccc2)cc1-c1nc(NCc2ncc[nH]2)nc2c1ccc(=O)n2-c1c(F)cccc1F [116(c), 3-{8-(2,6-difluorophenyl)-2-[(1H-imidazol-2-ylmethyl)amino]-7-oxo-7,8-dihydropyrido[2,3-d]pyrimidin-4-yl}-4-methyl-N-(phenylmethyl)benzamide] | 185 to 190 °C (dec.) | – | – |
| Cc1ccc(C(=O)NC2CC2)cc1-c1nc(NC2CC(C)(C)NC(C)(C)C2)nc2c1ccc(=O)n2-c1c(F)cccc1F [21(c)] | 326.3 to 327.9 °C | – | – |
| Cc1ccc(C(=O)Nc2nccs2)cc1-c1nc(NCc2ncc[nH]2)nc2c1ccc(=O)n2-c1c(F)cccc1F [79(c), 3-{8-(2,6-difluorophenyl)-2-[(1H-imidazol-2-ylmethyl)amino]-7-oxo-7,8-dihydropyrido[2,3-d]pyrimidin-4-yl}-4-methyl-N-1,3-thiazol-2-ylbenzamide] | – | statistically significant inhibition | active |
| CCCNC(=O)c1ccc(C)c(-c2nc(NCCN(C)C)nc3c2ccc(=O)n3-c2c(F)cccc2F)c1 [Example 105, 3-(8-(2,6-difluorophenyl)-2-{[2-(dimethylamino)ethyl]amino}-7-oxo-7,8-dihydropyrido[2,3-d]pyrimidin-4-yl)-4-methyl-N-propylbenzamide] | 139 to 142 °C | statistically significant inhibition | – |
| CCCNC(=O)c1ccc(C)c(-c2nc(N(C)CCCN(C)C)nc3c2ccc(=O)n3-c2c(F)cccc2F)c1 [Example 104, 3-{8-(2,6-difluorophenyl)-2-[[3-(dimethylamino)propyl](methyl)amino]-7-oxo-7,8-dihydropyrido[2,3-d]pyrimidin-4-yl}-4-methyl-N-propylbenzamide] | 104 to 109 °C | statistically significant inhibition | – |
| Cc1ccc(C(=O)Nc2nccs2)cc1-c1nc(NCCN(C)C)nc2c1ccc(=O)n2-c1c(F)cccc1F [Example 109, 3-(8-(2,6-difluorophenyl)-2-{[2-(dimethylamino)ethyl]amino}-7-oxo-7,8-dihydropyrido[2,3-d]pyrimidin-4-yl)-4-methyl-N-1,3-thiazol-2-ylbenzamide] | – | statistically significant inhibition | active |
| CNC1CCN(c2nc(-c3cc(C(=O)NC(C)C)ccc3C)c3ccc(=O)n(-c4c(F)cccc4F)c3n2)CC1 [113(b), 3-{8-(2,6-difluorophenyl)-2-[4-(methylamino)-1-piperidinyl]-7-oxo-7,8-dihydropyrido[2,3-d]pyrimidin-4-yl}-4-methyl-N-(1-methylethyl)benzamide] | – | statistically nonsignificant inhibition | active |
| Cc1ccc(C(=O)NC(C)C)cc1-c1nc(N(C)CCCN(C)C)nc2c1ccc(=O)n2-c1c(F)cccc1F [Example 34, 3-{8-(2,6-difluorophenyl)-2-[[3-(dimethylamino)propyl](methyl)amino]-7-oxo-7,8-dihydropyrido[2,3-d]pyrimidin-4-yl}-4-methyl-N-(1-methylethyl)benzamide] | – | statistically significant inhibition | active |
| Cc1ccc(C(=O)NC(C)C)cc1-c1nc(NCCN(C)C)nc2c1ccc(=O)n2-c1c(F)cccc1F [Example 117, 3-(8-(2,6-difluorophenyl)-2-{[2-(dimethylamino)ethyl]amino}-7-oxo-7,8-dihydropyrido[2,3-d]pyrimidin-4-yl)-4-methyl-N-(1-methylethyl)benzamide] | – | statistically significant inhibition | active |
| CCC(C)NC(=O)c1ccc(C)c(-c2nc(NCCCN(CC)CC)nc3c2ccc(=O)n3-c2c(F)cccc2F)c1 (stereo not drawn) [Example 162, 3-[2-{[3-(diethylamino)propyl]amino}-8-(2,6-difluorophenyl)-7-oxo-7,8-dihydropyrido[2,3-d]pyrimidin-4-yl]-4-methyl-N-(1-methylpropyl)benzamide] | – | statistically nonsignificant inhibition | active |
| CNCCNc1nc(-c2cc(C(=O)NC(C)C)ccc2C)c2ccc(=O)n(-c3c(F)cccc3F)c2n1 [Example 57, 3-(8-(2,6-difluorophenyl)-2-{[2-(methylamino)ethyl]amino}-7-oxo-7,8-dihydropyrido[2,3-d]pyrimidin-4-yl)-4-methyl-N-(1-methylethyl)benzamide] | – | statistically significant inhibition | active |
| Cc1ccc(NC(=O)c2ccsc2)cc1-c1nc(N2CCC(N)CC2)nc2c1ccc(=O)n2-c1c(F)cccc1F [Example 32, N-{3-[2-(4-amino-1-piperidinyl)-8-(2,6-difluorophenyl)-7-oxo-7,8-dihydropyrido[2,3-d]pyrimidin-4-yl]-4-methylphenyl}-3-thiophenecarboxamide] | 183.8 to 187.9 °C | statistically nonsignificant inhibition | – |
| CCCNC(=O)c1ccc(C)c(-c2nc(NCCN(C)C(=O)OC(C)(C)C)nc3c2ccc(=O)n3-c2c(F)cccc2F)c1 [Example 106, 1,1-dimethylethyl {2-[(8-(2,6-difluorophenyl)-4-{2-methyl-5-[(propylamino)carbonyl]phenyl}-7-oxo-7,8-dihydro-pyrido[2,3-d]pyrimidin-2-yl)amino]ethyl}methylcarbamate] | 115 to 118 °C | – | – |
| Cc1ccc(C(=O)Nc2ccc(F)cc2)cc1-c1nc(NCCN(C)C)nc2c1ccc(=O)n2-c1c(F)cccc1F [Example 112, 3-(8-(2,6-difluorophenyl)-2-{[2-(dimethylamino)ethyl]amino}-7-oxo-7,8-dihydropyrido[2,3-d]pyrimidin-4-yl)-N-(4-fluorophenyl)-4-methylbenzamide] | – | statistically nonsignificant inhibition | active |
| Cc1ccc(C(=O)Nc2ccc(F)cc2)cc1-c1nc(NC2CC(C)(C)NC(C)(C)C2)nc2c1ccc(=O)n2-c1c(F)cccc1F [Example 66, 3-{8-(2,6-difluorophenyl)-7-oxo-2-[(2,2,6,6-tetramethyl-4-piperidinyl)amino]-7,8-dihydropyrido[2,3-d]pyrimidin-4-yl}-N-(4-fluorophenyl)-4-methylbenzamide] | – | statistically significant inhibition | active |
